According to publication PMC7037321, “Development and Validation of Analytical Method for SH-1242 in the Rat and Mouse Plasma by Liquid Chromatography/Tandem Mass Spectrometry” (Molecules, 2020):

Columns and labels:
[1] = Stability of QC samples in rat plasma under handling and storage conditions; format: in vitro ADME; details: n = 3; for Accuracy (RE%), freeze-thaw stability / Mean concentration, freeze-thaw stability: 3 freeze-thaw cycles; for Accuracy (RE%), long term stability / Mean concentration, long term stability: 4 °C for 2 weeks; for Accuracy (RE%), autosampler stability / Mean concentration, autosampler stability: processed sample, 4 °C for 3 days; for Accuracy (RE%), benchtop stability / Mean concentration, benchtop stability: room temperature (25 °C) for 24 h
Experimental: (§1) Stock solutions of SH-1242 and IS were prepared at the concentrations of 1 mg/mL and 500 ng/mL in methanol, respectively. A serial dilution of the SH-1242 stock solution with methanol was carried out to obtain a set of SH-1242 standard solutions, and 5 µL aliquots of these standard solutions were added to 45 µL of blank plasma to prepare SH-1242 calibration standards at concentrations of 1, 2, 5, 10, 20, 50, 100, 200, 500, and 1000 ng/mL for rat plasma and 2, 5, 10, 20, 50, 100, 200, 500, and 1000 ng/mL for mouse plasma. Using similar dilution protocol, a batch of QC samples for SH-1242 was prepared at concentrations of 1 (LLOQ), 2 (low QC), 40 (mid QC), and 800 ng/mL (high QC) for rat plasma and 2 (LLOQ), 4 (low QC), 40 (mid QC), and 800 ng/mL (high QC) for mouse plasma. Samples were then processed according to the procedure described in Section 3.5.
(§2) The stability of SH-1242 and IS was evaluated under various storage and handling conditions. Stock solutions of SH-1242 and IS at concentrations of 1 mg/mL and 500 ng/mL, respectively, were stored at room temperature (25 °C) for 6 h, under refrigerated conditions (4 °C) for 24 h or 2 weeks, or under two different frozen conditions (−20 °C and −80 °C) for 2 weeks. Solutions of SH-1242 were diluted to 50 ng/mL prior to analysis. In addition, QC samples at three different concentrations (2 or 4 ng/mL, 40 ng/mL, and 800 ng/mL) were prepared and processed. The samples were then placed in various handling conditions (i.e., standing in an autosampler (4 °C for 3 days) or under bench-top condition (25 °C for 24 h), or subjected to three freeze-thaw cycles, or long-term refrigeration (4 °C for 2 weeks)). Mean peak areas of stock solutions were compared with those of fresh stock solutions. For QC samples, the results were compared with nominal concentrations. In this study, analytes were considered stable under test conditions when accuracies at each concentration were within 15% of nominal concentration.

[2] = Pharmacokinetic study after single intravenous administration to rats; format: in vivo; details: male, Sprague-Dawley, rat, plasma, single intravenous 0.1 mg/kg, n = 4, mean ± S.D.
Experimental: (§3) To test the applicability of the current assay to pharmacokinetic studies, in preclinical animal species, male Sprague-Dawley rats (weighing 250–270 g) or ICR mice (weighing 18–20 g) were used. Prior to the experiment, animals fasted for 12 h with free access to water. SH-1242 was dissolved in a dosing vehicle consisting of dimethyl sulfoxide, PEG400 (Sigma-Aldrich, St. Louis, MO, USA), and normal saline in a ratio of 1:6:3 (v/v/v%), and intravenously bolus-injected to the right femoral vein at 2 mL/kg for rats or to the tail vein at 5 mL/kg for mice. In this study, the intravenous dose of SH-1242 was set at 0.1 mg/kg for both species. Blood samples (approximately 150 µL each) were collected in heparinized tubes via the right femoral artery at 2, 5, 15, 30, 60, 90, 120, 180, 240, 360, and 480 min after the administration to rats (n = 4) and via the retro-orbital plexus at 2, 5, 15, 30, 60, or 120 min after the administration to mice (n = 3 for each time point). For the mouse study, a blood sample was obtained once from each animal, and the animal was sacrificed after collection. Plasma was obtained by centrifuging blood samples at 16,100 g for 5 min at 4 °C and then processed, as described in Section 3.5. The plasma concentration versus time data was analyzed using the non-compartmental method in the WinNonlin software (WinNonlin Professional 5.0.1.; Pharsight, Mountain View, CA, USA) to calculate essential kinetic parameters, such as terminal phase half-life (T1/2), systemic clearance (CL), and steady-state volume of distribution (Vss).

[3] = test system: hypoxia-mediated angiogenesis; design: method as in PMID 24875598; details: in vitro model of hypoxia-mediated angiogenesis; cited from earlier work
[4] = Pharmacokinetic study after single intravenous administration to mice; format: in vivo; details: male, ICR, plasma, single intravenous 0.1 mg/kg, representative (one time point per mouse)
Experimental: as §3

[5] = Stability of QC samples in mouse plasma under handling and storage conditions; format: in vitro ADME; details: n = 3; for Accuracy (RE%), freeze-thaw stability / Mean concentration, freeze-thaw stability: 3 freeze-thaw cycles; for Accuracy (RE%), long term stability / Mean concentration, long term stability: 4 °C for 2 weeks; for Accuracy (RE%), autosampler stability / Mean concentration, autosampler stability: processed sample, 4 °C for 3 days; for Accuracy (RE%), benchtop stability / Mean concentration, benchtop stability: room temperature (25 °C) for 24 h
Experimental: as §1, §2

[6] = Stability in stock solutions under typical storage conditions; format: physicochemical; details: stock solution in methanol (SH-1242 1 mg/mL, IS 500 ng/mL), n = 3
Experimental: as §1, §2

[7] = design: method as in PMID 11320671; details: rats; cited from earlier work

With `COc1ccc(CC(=O)c2ccc3c(c2OC)C=CC(C)(C)O3)cc1OC` [SH-1242, 2-(3,4-dimethoxyphenyl)-1-(5-methoxy-2,2-dimethyl-2H-chromen-6-yl)ethanone] the “Accuracy (RE%), freeze-thaw stability” value ([1]; HQC theoretical 800 ng/mL) was “–2.50%”, the “Mean concentration, freeze-thaw stability” value ([1]; HQC theoretical 800 ng/mL) was 780 ng/mL and the “Accuracy (RE%), freeze-thaw stability” value ([1]; LQC theoretical 2 ng/mL) was “–7.83%”. The “Mean concentration, freeze-thaw stability” value ([1]; LQC theoretical 2 ng/mL) was 1.84 ng/mL, the “Accuracy (RE%), freeze-thaw stability” value ([1]; MQC theoretical 40 ng/mL) was 4.92% and the “Mean concentration, freeze-thaw stability” value ([1]; MQC theoretical 40 ng/mL) was 41.97 ng/mL. The “Accuracy (RE%), long term stability” value ([1]; HQC theoretical 800 ng/mL) was “–8.71%”, the “Mean concentration, long term stability” value ([1]; HQC theoretical 800 ng/mL) was 730 ng/mL and the “Accuracy (RE%), long term stability” value ([1]; LQC theoretical 2 ng/mL) was 0.833%. The “Mean concentration, long term stability” value ([1]; LQC theoretical 2 ng/mL) was 2.02 ng/mL, the “Accuracy (RE%), long term stability” value ([1]; MQC theoretical 40 ng/mL) was “–6.75%” and the “Mean concentration, long term stability” value ([1]; MQC theoretical 40 ng/mL) was 37.3 ng/mL. The “Accuracy (RE%), autosampler stability” value ([1]; HQC theoretical 800 ng/mL) was “–3.33%”, the “Mean concentration, autosampler stability” value ([1]; HQC theoretical 800 ng/mL) was 773 ng/mL and the “Accuracy (RE%), autosampler stability” value ([1]; LQC theoretical 2 ng/mL) was “–0.167%”. For the same compound, the “Mean concentration, autosampler stability” value ([1]; LQC theoretical 2 ng/mL) was 2.00 ng/mL, the “Accuracy (RE%), autosampler stability” value ([1]; MQC theoretical 40 ng/mL) was “–2.75%” and the “Mean concentration, autosampler stability” value ([1]; MQC theoretical 40 ng/mL) was 38.9 ng/mL. For the same compound, the “Accuracy (RE%), benchtop stability” value ([1]; HQC theoretical 800 ng/mL) was “–7.88%”, the “Mean concentration, benchtop stability” value ([1]; HQC theoretical 800 ng/mL) was 737 ng/mL and the “Accuracy (RE%), benchtop stability” value ([1]; LQC theoretical 2 ng/mL) was “–6.33%”. For the same compound, the “Mean concentration, benchtop stability” value ([1]; LQC theoretical 2 ng/mL) was 1.87 ng/mL, the “Accuracy (RE%), benchtop stability” value ([1]; MQC theoretical 40 ng/mL) was “–6.83%” and the “Mean concentration, benchtop stability” value ([1]; MQC theoretical 40 ng/mL) was 37.3 ng/mL. It also gave an AUC(0-inf) [2] of 55.8 ng·h/mL, an MRT [2] of 2.48 h and a clearance [2] of 30.5 ± 4.49 mL/min/kg. For the same compound, the half-life [2] was 2.43 ± 0.983 h, the Vd ([2]; read-out: Vss) was 4.38 ± 0.716 L/kg and the “effective concentration (antiangiogenic activity)” value [3] was about 10 nM. For the same compound, the AUC(0-inf) [4] was 24 ng·h/mL, the MRT [4] was 0.493 h and the clearance [4] was 69.4 mL/min/kg. The half-life [4] was 0.438 h, the Vd ([4]; read-out: Vss) was 2.06 L/kg and the “Accuracy (RE%), freeze-thaw stability” value ([5]; HQC theoretical 800 ng/mL) was 5.00%. The “Mean concentration, freeze-thaw stability” value ([5]; HQC theoretical 800 ng/mL) was 840 ng/mL, the “Accuracy (RE%), freeze-thaw stability” value ([5]; LQC theoretical 4 ng/mL) was 11.3% and the “Mean concentration, freeze-thaw stability” value ([5]; LQC theoretical 4 ng/mL) was 4.45 ng/mL. For the same compound, the “Accuracy (RE%), freeze-thaw stability” value ([5]; MQC theoretical 40 ng/mL) was 6.00%, the “Mean concentration, freeze-thaw stability” value ([5]; MQC theoretical 40 ng/mL) was 42.4 ng/mL and the “Accuracy (RE%), long term stability” value ([5]; HQC theoretical 800 ng/mL) was 8.08%. For the same compound, the “Mean concentration, long term stability” value ([5]; HQC theoretical 800 ng/mL) was 865 ng/mL, the “Accuracy (RE%), long term stability” value ([5]; LQC theoretical 4 ng/mL) was “–4.08%” and the “Mean concentration, long term stability” value ([5]; LQC theoretical 4 ng/mL) was 3.84 ng/mL. For the same compound, the “Accuracy (RE%), long term stability” value ([5]; MQC theoretical 40 ng/mL) was 12.0%, the “Mean concentration, long term stability” value ([5]; MQC theoretical 40 ng/mL) was 44.8 ng/mL and the “Accuracy (RE%), autosampler stability” value ([5]; HQC theoretical 800 ng/mL) was 7.83%. The “Mean concentration, autosampler stability” value ([5]; HQC theoretical 800 ng/mL) was 863 ng/mL, the “Accuracy (RE%), autosampler stability” value ([5]; LQC theoretical 4 ng/mL) was 4.67% and the “Mean concentration, autosampler stability” value ([5]; LQC theoretical 4 ng/mL) was 4.19 ng/mL. The “Accuracy (RE%), autosampler stability” value ([5]; MQC theoretical 40 ng/mL) was 6.50%, the “Mean concentration, autosampler stability” value ([5]; MQC theoretical 40 ng/mL) was 42.6 ng/mL and the “Accuracy (RE%), benchtop stability” value ([5]; HQC theoretical 800 ng/mL) was 1.25%. The “Mean concentration, benchtop stability” value ([5]; HQC theoretical 800 ng/mL) was 810 ng/mL, the “Accuracy (RE%), benchtop stability” value ([5]; LQC theoretical 4 ng/mL) was 5.25% and the “Mean concentration, benchtop stability” value ([5]; LQC theoretical 4 ng/mL) was 4.21 ng/mL. The “Accuracy (RE%), benchtop stability” value ([5]; MQC theoretical 40 ng/mL) was 4.25%, the “Mean concentration, benchtop stability” value ([5]; MQC theoretical 40 ng/mL) was 41.7 ng/mL and the “Relative conc. (%) vs initial” value ([6]; Refrigerated (4 °C, 2 Weeks)) was 85.2%. The “Relative conc. (%) vs initial” value ([6]; Refrigerated (4 °C, 24 h)) was 105%, the “Relative conc. (%) vs initial” value ([6]; Refrigerated (−20 °C, 2 Weeks)) was 89.1% and the “Relative conc. (%) vs initial” value ([6]; Refrigerated (−80 °C, 2 Weeks)) was 90.8%. For the same compound, the “Relative conc. (%) vs initial” value ([6]; Room Temp. (6 h)) was 109%.
For `COc1cc2c(cc1OC)[C@@H]1C(=O)c3ccc4c(c3O[C@@H]1CO2)C=CC(C)(C)O4` [deguelin, reference compound], the CL [7] is listed as 72.7 mL/min/kg, the Vss [7] is listed as 30.5 L/kg and the “Relative conc. (%) vs initial” value ([6]; Refrigerated (4 °C, 2 Weeks)) is listed as 92.3%. For the same compound, the “Relative conc. (%) vs initial” value ([6]; Refrigerated (4 °C, 24 h)) was 105%, the “Relative conc. (%) vs initial” value ([6]; Refrigerated (−20 °C, 2 Weeks)) was 91.4% and the “Relative conc. (%) vs initial” value ([6]; Refrigerated (−80 °C, 2 Weeks)) was 86.2%. For the same compound, the “Relative conc. (%) vs initial” value ([6]; Room Temp. (6 h)) was 101%.
